Drawing on PMC4051504, “Structural and functional analysis of the human spliceosomal DEAD-box helicase Prp28” (Acta Crystallographica Section D: Biological Crystallography, 2014), this text covers Kd for one compound.

The assay deals with T1, hPrp28ΔN (Homo sapiens, UniProt Q9BUQ8).
T1 construct: gene DDX23; helicase domain plus short N-terminal extension, residues 338-820; GST tag cleaved with PreScission protease; E. coli BL21 Star (DE3)
T1 sequence (Q9BUQ8 338-820): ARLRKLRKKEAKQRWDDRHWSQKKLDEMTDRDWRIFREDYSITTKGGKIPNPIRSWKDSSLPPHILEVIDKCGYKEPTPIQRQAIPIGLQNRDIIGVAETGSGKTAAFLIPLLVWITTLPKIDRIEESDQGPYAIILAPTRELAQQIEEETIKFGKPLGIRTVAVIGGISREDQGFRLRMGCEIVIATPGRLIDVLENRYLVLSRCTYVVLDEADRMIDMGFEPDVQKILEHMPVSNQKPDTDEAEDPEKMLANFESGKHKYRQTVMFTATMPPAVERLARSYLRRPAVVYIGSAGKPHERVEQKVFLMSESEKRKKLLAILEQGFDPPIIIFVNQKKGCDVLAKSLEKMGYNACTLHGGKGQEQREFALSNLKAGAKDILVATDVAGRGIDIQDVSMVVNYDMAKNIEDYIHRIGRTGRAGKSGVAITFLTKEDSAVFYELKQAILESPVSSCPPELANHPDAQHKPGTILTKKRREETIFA
The assay is described as follows: fluorescence titration, Trp emission at […] nm (excitation […] nm). The format is binding.

What is called Kd is the concentration at which binding is half-saturated. Lower therefore signals a tighter complex. On to `CNc1ccccc1C(=O)O[C@H]1[C@@H](O)[C@H](n2cnc3c(N)ncnc32)O[C@@H]1CO[P@@](=O)(O)O[P@](=O)(O)OP(=O)(O)O` [mant-ATP], for which the Kd is > 400 µM.
